Results on 22 compounds are retold here after US20120064062A1 (priority 2010, published 2012).

The target in data set [1] is T1, Pla (Yersinia pestis, UniProt P17811). Nature of the data set: biochemical.
The target of data set [2] is T2, urokinase type plasminogen activator (uPA) (Homo sapiens, UniProt P00749).
T2 construct: purchased US Biological, Inc. U2605-01
The experiment in a line: uPA plasminogen activator counter-screen (Glu-Plg, S2251). The format is biochemical. Conditions: z-score = number of standard deviations below DMSO control.

Data set [3] can be described thus: Cytotoxicity to HeLa cells in serum-free culture (MTS). Conditions: human.
The target in the next data set is T3, cathepsin E (Homo sapiens, UniProt P14091).
T3 construct: purchased R&D Systems 1294-AS-010
T3 sequence (P14091 54-396): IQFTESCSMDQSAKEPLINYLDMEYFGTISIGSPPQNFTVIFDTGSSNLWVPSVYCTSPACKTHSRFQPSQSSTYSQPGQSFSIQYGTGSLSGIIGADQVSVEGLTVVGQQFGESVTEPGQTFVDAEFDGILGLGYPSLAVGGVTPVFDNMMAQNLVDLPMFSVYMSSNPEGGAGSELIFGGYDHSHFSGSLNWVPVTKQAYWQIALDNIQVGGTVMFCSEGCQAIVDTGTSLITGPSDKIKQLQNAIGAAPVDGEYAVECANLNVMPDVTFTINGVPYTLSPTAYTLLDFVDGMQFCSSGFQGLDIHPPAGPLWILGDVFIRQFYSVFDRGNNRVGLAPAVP
The experiment in a line: Cathepsin E fluorometric counter-screen. Format: biochemical. Conditions: z-score = number of standard deviations below DMSO control.

For a further data set, the target named is T4, cathepsin D (Homo sapiens, UniProt P07339).
T4 construct: purchased R&D Systems 1014-AS-010
The experiment in a line: Cathepsin D fluorometric counter-screen. The format is biochemical. Conditions: z-score = number of standard deviations below DMSO control.

In the next data set the target is Plasmin (Homo sapiens, UniProt P00747). Nature of the data set: Plasmin inhibitory activity counter-screen (coupling enzyme). The format is biochemical. Conditions: z-score = number of standard deviations the enzymatic activity falls below the DMSO non-inhibitory control.
The next data set has as its target T5, HIV-1 protease (Human immunodeficiency virus type 1 group M subtype B, UniProt P04585).
T5 construct: Plasmin, tPA, uPA, Cathepsin D, Cathepsin E, and HIV-1 protease
Nature of the data set: HIV-1 protease counter-screen. The format is biochemical. Conditions: % of the enzymatic activity of a DMSO non-inhibitory control.

The target of another data set is Y. pestis Pla (Yersinia pestis, UniProt P17811). The experiment in a line: biochemical.
Data set [4] deals with T6, tissue plasminogen activator (tPA) (Homo sapiens, UniProt P00750).
T6 construct: purchased US Biological, Inc. T5600-30
Nature of the data set: tPA plasminogen activator counter-screen (Glu-Plg, S2251). The format is biochemical. Conditions: z-score = number of standard deviations below DMSO control.

The target of data set [5] is T1, Pla. Format: biochemical.
Target sequence in this assay (P17811 21-312 limits assumed): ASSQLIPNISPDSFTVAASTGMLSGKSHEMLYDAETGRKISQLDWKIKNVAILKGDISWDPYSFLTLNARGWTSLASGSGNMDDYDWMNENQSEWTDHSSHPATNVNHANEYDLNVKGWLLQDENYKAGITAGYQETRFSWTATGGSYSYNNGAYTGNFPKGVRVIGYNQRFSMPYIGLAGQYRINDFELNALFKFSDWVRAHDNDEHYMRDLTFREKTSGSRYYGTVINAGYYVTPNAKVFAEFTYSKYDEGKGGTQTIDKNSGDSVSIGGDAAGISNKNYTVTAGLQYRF

Where a SMILES comes first, the peptide text is derived from it. [ ]: non-standard residue; d: D form. The star is where a group is joined. Sta = CC(C)C[C@H](N)[C@@H](O)CC(=O)O; Isovaleryl = CC(C)CC(=O)* Bounds are passed on as bounds.

Chain of Y. pestis Pla (P17811 21-312 limits assumed): as above
T6 sequence (P00750 36-562): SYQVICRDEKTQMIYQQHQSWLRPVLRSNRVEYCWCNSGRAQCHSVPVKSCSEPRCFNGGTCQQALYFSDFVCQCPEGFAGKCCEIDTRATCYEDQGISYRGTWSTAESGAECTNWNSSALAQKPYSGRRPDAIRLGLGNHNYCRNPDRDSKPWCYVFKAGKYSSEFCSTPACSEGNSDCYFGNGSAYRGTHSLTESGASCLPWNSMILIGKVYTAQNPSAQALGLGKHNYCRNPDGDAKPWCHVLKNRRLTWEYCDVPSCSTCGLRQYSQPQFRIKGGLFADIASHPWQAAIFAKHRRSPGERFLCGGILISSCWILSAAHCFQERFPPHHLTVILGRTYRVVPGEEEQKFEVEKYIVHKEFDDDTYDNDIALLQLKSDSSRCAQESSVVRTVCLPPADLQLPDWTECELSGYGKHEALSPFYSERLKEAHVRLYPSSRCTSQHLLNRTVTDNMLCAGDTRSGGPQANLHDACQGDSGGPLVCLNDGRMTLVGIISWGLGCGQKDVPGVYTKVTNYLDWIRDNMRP
T4 sequence (P07339 65-412): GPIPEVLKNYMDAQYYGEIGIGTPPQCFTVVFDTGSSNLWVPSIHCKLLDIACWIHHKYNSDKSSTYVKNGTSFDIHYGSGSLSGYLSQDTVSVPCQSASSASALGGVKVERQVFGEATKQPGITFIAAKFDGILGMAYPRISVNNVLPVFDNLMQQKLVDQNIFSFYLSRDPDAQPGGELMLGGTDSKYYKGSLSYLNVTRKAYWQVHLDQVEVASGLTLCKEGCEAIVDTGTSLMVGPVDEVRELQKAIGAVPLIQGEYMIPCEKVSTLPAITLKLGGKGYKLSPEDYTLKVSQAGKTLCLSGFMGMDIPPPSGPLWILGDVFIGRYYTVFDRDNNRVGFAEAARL
Chain of Plasmin (P00747 581-810 limits assumed): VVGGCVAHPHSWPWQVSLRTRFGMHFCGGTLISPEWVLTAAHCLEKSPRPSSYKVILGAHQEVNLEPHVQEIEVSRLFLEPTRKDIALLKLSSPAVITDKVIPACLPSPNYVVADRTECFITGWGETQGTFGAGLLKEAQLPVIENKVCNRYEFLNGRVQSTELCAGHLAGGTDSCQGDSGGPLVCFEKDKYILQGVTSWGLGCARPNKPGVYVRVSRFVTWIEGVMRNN
Chain of Plasmin (P00747 97-580 partner limits assumed): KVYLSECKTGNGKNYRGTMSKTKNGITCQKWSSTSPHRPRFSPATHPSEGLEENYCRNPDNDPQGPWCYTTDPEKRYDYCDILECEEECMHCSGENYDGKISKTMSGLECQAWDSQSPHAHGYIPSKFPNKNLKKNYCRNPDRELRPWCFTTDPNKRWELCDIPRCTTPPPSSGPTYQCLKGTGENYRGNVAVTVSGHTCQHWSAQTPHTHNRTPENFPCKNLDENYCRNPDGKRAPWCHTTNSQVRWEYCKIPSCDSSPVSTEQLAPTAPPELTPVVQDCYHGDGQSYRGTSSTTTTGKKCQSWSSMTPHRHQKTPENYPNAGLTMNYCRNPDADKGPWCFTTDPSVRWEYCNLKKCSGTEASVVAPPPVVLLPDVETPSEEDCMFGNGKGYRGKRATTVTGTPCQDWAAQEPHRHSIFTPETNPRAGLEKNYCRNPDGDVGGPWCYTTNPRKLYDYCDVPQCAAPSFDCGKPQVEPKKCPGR

Take `NCCCC[C@H](NC(=O)[C@@H](N)CCCN=C(N)N)C(=O)O` [Arg-Lys] (H-Arg-Lys-OH): at Pla [1], the Ki amounted to 900 µM.
With `O=S(=O)(Nc1cc(Cl)ccc1Oc1ccccc1)c1cccs1` [Compound 3], in data set [2], the “uPA Z-Score at 50 μM” value is given as 0.5. Also, in data set [3], it took 49 µM to reach half-maximal cytotoxicity (CC50) and the selectivity ratio was roughly 50. Further, at cathepsin E, the “Cathepsin-E Z-Score at 50 μM” value was 0.4. Moreover, on cathepsin D, the “Cathepsin-D Z-Score at 50 μM” value is on record as 0. Also, the “Plasmin Z-Score at 50 μM” value at Plasmin turned out to be 2.5. Also, the inhibition at 50 µM on HIV-1 protease is 13%. The same compound registered an IC50 on Y. pestis Pla of 1 µM. In addition, the “tPA Z-Score at 50 μM” value in data set [4] turned out to be 0.3.
On Pla [1], `NC(N)=NCCC[C@H](N)C(=O)NCC(=O)O` [Arg-Gly] (H-Arg-Gly-OH) yielded a Ki of 5200 µM.
`Cc1ccc(S(=O)(=O)Nc2ccccc2C(=O)c2ccccc2)cc1` [H]: the midpoint of inhibition at Y. pestis Pla, the IC50, lay at 100 µM.
As for `O=[N+]([O-])c1ccccc1S(=O)(=O)Nc1cc(Cl)ccc1Oc1ccccc1` [Compound 4], the “uPA Z-Score at 50 μM” value in data set [2] came out at 1. The compound further registered a CC50 in data set [3] of 47 µM. For the same compound, the “Cathepsin-E Z-Score at 50 μM” value on cathepsin E was found to be 0.9. Moreover, the “Cathepsin-D Z-Score at 50 μM” value at cathepsin D stood at 0.6. Further, the “Plasmin Z-Score at 50 μM” value at Plasmin was 1.4. The compound further yielded an inhibition at 50 µM at HIV-1 protease of 11%. At Y. pestis Pla, this compound registered an IC50 of 9.9 µM. Moreover, in data set [4], the “tPA Z-Score at 50 μM” value was 0.4.
As to `NCCCC[C@H](N)C(=O)NCC(=O)O` [Lys-Gly] (H-Lys-Gly-OH), the Ki on Pla [1] was found to be 5600 µM.
Take `COc1ccc(S(=O)(=O)Nc2ccccc2Oc2ccccc2)c(OC)c1` [F]: inhibition on Y. pestis Pla was half-maximal at 52.3 µM (IC50).
On the same count and under the same terms, the result for `COC(=O)c1c(C)oc2ccc(N(C(=O)c3ccncc3)S(=O)(=O)c3ccc(F)cc3C)cc12` [A] reads 6.6 µM.
With `CC(C)CC(=O)N[C@H](C(=O)N[C@H](C(=O)N[C@@H](CC(C)C)[C@@H](O)CC(=O)N[C@@H](C)C(=O)N[C@@H](CC(C)C)[C@@H](O)CC(=O)O)C(C)C)C(C)C` [pepstatin] (Isovaleryl-VV[Sta]A[Sta]-OH), the “Inhibitory effect against Pla” value at Pla [5] is given as “no inhibitory effect”.
Regarding `NCCCC[C@H](NC(=O)[C@@H](N)CCCCN)C(=O)O` [Lys-Lys], the inhibition constant (Ki) on Pla [1] is 4500 µM.
Regarding `O=S(=O)(Nc1cc(Cl)ccc1Oc1ccccc1)c1ccc2c(c1)OCCO2` [Compound 1], the “uPA Z-Score at 50 μM” value in [2] is recorded as 0.5. Further, the CC50 in data set [3] is greater than 100 µM. Also, on cathepsin E, the “Cathepsin-E Z-Score at 50 μM” value was −0.1. The “Cathepsin-D Z-Score at 50 μM” value at cathepsin D is on record as −0.2. For the same compound, the “Plasmin Z-Score at 50 μM” value at Plasmin amounted to 4.9. On HIV-1 protease, this compound displayed an inhibition at 50 µM of 10%. In addition, half-maximal inhibition against Y. pestis Pla (IC50) was put at 4.25 µM. For the same compound, the “tPA Z-Score at 50 μM” value in data set [4] is listed as −0.3.
`CC(C)[C@H](NC(=O)[C@@H](N)CCCCN)C(=O)O` [Lys-Val, reference compound] (H-Lys-Val-OH; C-terminus assumed) returned a Ki at Pla [1] of 8400 µM. Moreover, on Y. pestis Pla (read-out: Average inhibition), the inhibition at 16000 µM amounted to 60%.
At Pla [1], `CC(C)[C@H](NC(=O)[C@@H](N)CCCNC(=N)N)C(=O)O` [Arg-Val] (H-Arg-Val-OH; N-terminus and C-terminus assumed) came in with a Ki of 4800 µM.
Regarding `COc1ccc(C)cc1S(=O)(=O)Nc1cc(Cl)ccc1Oc1ccccc1` [G], the half-inhibitory concentration (IC50) at Y. pestis Pla is 84.2 µM.
On to `O=C(O)CN(CCOCCOCCN(CC(=O)O)CC(=O)O)CC(=O)O` [EGTA], for which the “Inhibitory effect against Pla” value on Pla [5] is reported as “enhance activity”.
Still for that read-out and setting: the result for `O=C(O)CN(CCN(CC(=O)O)CC(=O)O)CC(=O)O` [EDTA] reads “enhance activity”.
The compound `O=S(=O)(Nc1ccccc1Oc1ccccc1)c1cc(Cl)ccc1Cl` [I] came in with an IC50 on Y. pestis Pla of 139 µM.
Take `O=S(=O)(Nc1ccccc1-c1ccccc1)c1cccs1` [Compound 2]: the “uPA Z-Score at 50 μM” value in data set [2] is recorded as 0.5. In data set [3], this compound returned a CC50 of 62 µM. In addition, the “Cathepsin-E Z-Score at 50 μM” value on cathepsin E is reported as −0.3. In addition, the “Cathepsin-D Z-Score at 50 μM” value on cathepsin D was −1.6. Moreover, the “Plasmin Z-Score at 50 μM” value at Plasmin is on record as 1.8. On HIV-1 protease, this compound registered an inhibition at 50 µM of 2%. For the same compound, on Y. pestis Pla, the IC50 came out at 4.3 µM. Besides, in data set [4], the “tPA Z-Score at 50 μM” value came to 0.5.
As to `O=S(=O)(Nc1ccccc1C1=NCCc2ccccc21)c1ccc(Cl)cc1` [D], on Y. pestis Pla, the IC50 was 35.8 µM.
Still for that read-out and setting: the result for `CC(=O)Nc1ccc(S(=O)(=O)Nc2ccccc2Oc2ccccc2)cc1` [E] reads 50.4 µM; that for `O=S(=O)(Nc1ccccc1-c1ccccc1)c1ccc(Br)s1` [B], 8.9 µM.
The same measure, in the same setting: the result for `COc1ccc(S(=O)(=O)Nc2ccccc2Oc2ccccc2)cc1C` [C] reads 22 µM.
